Data on 29 compounds can be found in patent US9974775B2, “Substituted imidazoles as N-type calcium channel blockers” (Janssen Pharmaceutica NV, priority 2013, dated 2018).

This assay has as its target human N-type Ca channel (Homo sapiens, UniProt Q00975). Briefly: Measurement of electrophysiological response (QPatch). The conditions noted are these: for IC50: concentration range 0.3-10 μM. (Patch clamp records ionic current or voltage across a cell membrane.)
The mark [1] stands for this setting: N Type IC50 Data Qpatch Pulse = 1, Pulse = 1.
Where [2] appears, read: N Type IC50 Data Qpatch Pulse = 15, Pulse = 15.
The mark [3] stands for this setting: concentration range 0.01-0.3 μM.

Molecules are shown by their SMILES.

Chain of human N-type Ca channel (Q00975 whole entry): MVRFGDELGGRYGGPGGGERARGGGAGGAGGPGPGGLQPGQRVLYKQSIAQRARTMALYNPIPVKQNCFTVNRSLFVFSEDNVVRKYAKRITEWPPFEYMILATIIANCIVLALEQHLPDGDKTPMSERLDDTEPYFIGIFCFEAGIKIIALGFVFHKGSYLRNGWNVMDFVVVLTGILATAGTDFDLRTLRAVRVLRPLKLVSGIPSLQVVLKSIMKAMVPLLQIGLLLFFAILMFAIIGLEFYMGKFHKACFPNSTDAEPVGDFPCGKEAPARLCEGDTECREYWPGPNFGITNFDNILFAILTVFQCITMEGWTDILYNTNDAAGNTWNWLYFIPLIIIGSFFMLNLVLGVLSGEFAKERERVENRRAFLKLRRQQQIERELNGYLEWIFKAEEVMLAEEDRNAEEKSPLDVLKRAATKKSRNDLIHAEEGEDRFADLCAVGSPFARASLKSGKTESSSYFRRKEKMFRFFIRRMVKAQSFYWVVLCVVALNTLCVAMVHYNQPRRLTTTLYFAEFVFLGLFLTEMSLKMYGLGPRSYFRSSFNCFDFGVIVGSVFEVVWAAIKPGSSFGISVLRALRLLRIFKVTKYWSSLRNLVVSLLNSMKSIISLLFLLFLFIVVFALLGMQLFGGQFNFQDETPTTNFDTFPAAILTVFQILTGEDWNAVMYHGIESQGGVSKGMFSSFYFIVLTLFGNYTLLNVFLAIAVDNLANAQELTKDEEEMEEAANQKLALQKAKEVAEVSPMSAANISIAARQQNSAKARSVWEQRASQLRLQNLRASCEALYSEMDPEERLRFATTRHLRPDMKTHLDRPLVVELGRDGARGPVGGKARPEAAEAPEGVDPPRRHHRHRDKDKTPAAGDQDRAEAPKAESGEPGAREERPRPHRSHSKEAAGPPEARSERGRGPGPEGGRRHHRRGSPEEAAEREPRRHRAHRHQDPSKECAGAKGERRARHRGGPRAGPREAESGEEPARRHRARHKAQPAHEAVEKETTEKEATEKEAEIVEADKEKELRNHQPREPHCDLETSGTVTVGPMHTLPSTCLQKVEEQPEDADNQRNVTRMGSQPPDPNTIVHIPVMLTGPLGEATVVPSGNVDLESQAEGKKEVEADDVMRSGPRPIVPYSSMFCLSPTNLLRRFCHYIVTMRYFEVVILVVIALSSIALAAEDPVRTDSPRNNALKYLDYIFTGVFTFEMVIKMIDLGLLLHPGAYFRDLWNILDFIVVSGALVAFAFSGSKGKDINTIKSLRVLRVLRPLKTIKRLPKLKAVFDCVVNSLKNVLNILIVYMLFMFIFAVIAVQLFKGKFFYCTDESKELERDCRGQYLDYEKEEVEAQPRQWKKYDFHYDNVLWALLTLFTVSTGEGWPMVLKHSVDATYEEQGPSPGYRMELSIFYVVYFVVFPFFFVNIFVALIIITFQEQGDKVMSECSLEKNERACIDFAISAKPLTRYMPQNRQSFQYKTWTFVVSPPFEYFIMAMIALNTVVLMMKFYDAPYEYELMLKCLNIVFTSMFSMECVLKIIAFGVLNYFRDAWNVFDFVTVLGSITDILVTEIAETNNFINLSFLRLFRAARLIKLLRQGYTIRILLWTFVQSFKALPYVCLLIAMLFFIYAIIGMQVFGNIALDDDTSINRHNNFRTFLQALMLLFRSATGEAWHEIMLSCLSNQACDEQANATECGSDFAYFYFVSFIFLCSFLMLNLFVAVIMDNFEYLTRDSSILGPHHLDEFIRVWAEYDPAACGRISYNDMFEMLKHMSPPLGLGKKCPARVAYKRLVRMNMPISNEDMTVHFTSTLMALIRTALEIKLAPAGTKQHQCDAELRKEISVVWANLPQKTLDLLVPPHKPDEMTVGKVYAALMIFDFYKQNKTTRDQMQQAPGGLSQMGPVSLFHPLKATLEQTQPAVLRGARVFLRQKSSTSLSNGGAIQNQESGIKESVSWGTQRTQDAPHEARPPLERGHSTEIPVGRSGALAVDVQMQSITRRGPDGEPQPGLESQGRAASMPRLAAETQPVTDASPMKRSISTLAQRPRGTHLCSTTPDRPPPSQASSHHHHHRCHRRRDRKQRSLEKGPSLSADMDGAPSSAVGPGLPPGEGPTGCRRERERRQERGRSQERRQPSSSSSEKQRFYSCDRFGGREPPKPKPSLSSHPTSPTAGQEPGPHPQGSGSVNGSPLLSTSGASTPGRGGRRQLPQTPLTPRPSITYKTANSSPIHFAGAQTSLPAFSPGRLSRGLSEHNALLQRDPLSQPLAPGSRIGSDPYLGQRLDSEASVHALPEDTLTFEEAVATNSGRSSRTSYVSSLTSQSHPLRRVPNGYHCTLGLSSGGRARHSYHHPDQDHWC
Chain of human N-type Ca channel (P54284 whole entry partner): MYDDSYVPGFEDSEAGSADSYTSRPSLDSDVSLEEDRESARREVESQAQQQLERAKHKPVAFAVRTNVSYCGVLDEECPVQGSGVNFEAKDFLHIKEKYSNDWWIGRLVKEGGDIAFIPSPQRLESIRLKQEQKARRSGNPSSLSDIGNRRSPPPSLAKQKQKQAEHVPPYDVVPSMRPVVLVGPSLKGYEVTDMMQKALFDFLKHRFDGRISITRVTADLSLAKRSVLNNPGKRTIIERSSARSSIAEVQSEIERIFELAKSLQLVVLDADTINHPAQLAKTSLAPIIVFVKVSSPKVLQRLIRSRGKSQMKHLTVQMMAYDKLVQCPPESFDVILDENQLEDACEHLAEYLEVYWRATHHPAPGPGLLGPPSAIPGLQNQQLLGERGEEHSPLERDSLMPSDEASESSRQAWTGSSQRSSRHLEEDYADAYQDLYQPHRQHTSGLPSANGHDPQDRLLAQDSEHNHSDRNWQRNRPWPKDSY
Chain of human N-type Ca channel (P54289 25-956 partner limits assumed): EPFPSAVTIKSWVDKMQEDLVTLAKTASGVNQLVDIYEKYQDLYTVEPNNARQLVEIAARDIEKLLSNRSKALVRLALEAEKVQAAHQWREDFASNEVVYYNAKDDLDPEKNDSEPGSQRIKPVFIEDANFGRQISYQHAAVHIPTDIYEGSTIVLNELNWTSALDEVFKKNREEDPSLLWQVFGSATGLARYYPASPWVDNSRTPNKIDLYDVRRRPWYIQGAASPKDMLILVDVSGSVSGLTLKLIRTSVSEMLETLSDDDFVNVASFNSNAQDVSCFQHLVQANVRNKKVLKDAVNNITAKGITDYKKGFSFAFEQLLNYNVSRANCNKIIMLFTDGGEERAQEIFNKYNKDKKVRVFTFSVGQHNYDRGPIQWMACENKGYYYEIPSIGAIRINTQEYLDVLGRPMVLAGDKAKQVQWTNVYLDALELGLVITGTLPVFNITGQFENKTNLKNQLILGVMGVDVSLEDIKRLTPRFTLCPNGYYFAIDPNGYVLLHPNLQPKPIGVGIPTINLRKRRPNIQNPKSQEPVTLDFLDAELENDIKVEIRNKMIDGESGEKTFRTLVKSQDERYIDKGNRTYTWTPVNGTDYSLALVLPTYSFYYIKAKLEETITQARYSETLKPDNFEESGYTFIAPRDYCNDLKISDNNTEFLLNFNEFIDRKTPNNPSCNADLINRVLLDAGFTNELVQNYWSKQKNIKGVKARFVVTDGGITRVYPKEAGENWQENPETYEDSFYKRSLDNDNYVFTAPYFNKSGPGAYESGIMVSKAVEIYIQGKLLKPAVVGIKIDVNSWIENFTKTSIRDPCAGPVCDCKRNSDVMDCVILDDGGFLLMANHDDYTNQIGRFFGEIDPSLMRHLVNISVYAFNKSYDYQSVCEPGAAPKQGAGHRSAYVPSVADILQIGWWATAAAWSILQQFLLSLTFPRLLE
Chain of human N-type Ca channel (P54289 957-1103 partner limits assumed): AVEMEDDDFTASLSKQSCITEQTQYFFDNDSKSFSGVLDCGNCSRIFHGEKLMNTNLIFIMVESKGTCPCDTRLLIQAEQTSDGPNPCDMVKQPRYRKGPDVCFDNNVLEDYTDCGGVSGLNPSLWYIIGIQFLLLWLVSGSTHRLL
Experimental: The recombinant cell line described above was used in the measurement of electrophysiological properties with QPatch (Sophion). […] Prior to the experiment, the flasks were moved to 30° C. and incubated for 48-72 hrs. On the day of assaying, cells were detached and harvested. The cell pellet was re-suspended in SMF4HEK (HyClone)/25 mM HEPS at 2-5 million/mL and placed on the QStirrer of the QPatch for 30-60 min prior to the start of the assay. […] Microtiter-Plate/Reference Buffer contained 140 mM TEA-Cl, 10 mM BaCl2, 0.8 mM MgCl2, 10 mM HEPES pH˜7.4 adjusted with TEA-OH/HCl, and ˜300 mOsm. Cells were transferred to a QPatch 48 plate and gigaseal was formed. The plate was perfused with intracellular and extracellular buffer. […] In brief, cells were depolarized from resting potential of −80 mV to +20 mV and current was recorded. Data was plotted as percent inhibition vs concentration of the compound and IC50 values were generated using Graphpad Prism non-linear regression analysis.

Turning to `COc1ccccc1-c1nc(C2CC(C)(C)OC(C)(C)C2)cn1-c1ccc(F)cc1` [Cpd 4, 1-(4-Fluorophenyl)-2-(2-methoxyphenyl)-4-(2,2,6,6-tetramethyltetrahydro-2H-pyran-4-yl)-1H-imidazole], under setting [1], the IC50 (usually the concentration that gives 50% inhibition) was at least 10 µM.
`COc1ccccc1-c1nc(C2CC(C)(C)OC(C)(C)C2)cn1-c1ccc(C)nc1` [Cpd 5, 5-[2-(2-Methoxyphenyl)-4-(2,2,6,6-tetramethyltetrahydro-2H-pyran-4-yl)-1H-imidazol-1-yl]-2-methylpyridine]: the half-maximal inhibitory concentration (IC50) under setting [2] is at least 10 µM.
Consider `COc1ccccc1-c1nc(C2CC(C)(C)OC(C)(C)C2)cn1-c1ccc(C)cn1` [Cpd 6, 2-[2-(2-Methoxyphenyl)-4-(2,2,6,6-tetramethyltetrahydro-2H-pyran-4-yl)-1H-imidazol-1-yl]-5-methylpyridine], for which the IC50 runs as follows: under setting [1], at least 10 µM; under setting [2], at least 10 µM.
As for `COc1ncccc1-c1nc(C2CC(C)(C)OC(C)(C)C2)cn1Cc1cccc(Cl)c1` [Cpd 9, 3-(1-(3-chlorobenzyl)-4-(2,2,6,6-tetramethyltetrahydro-2H-pyran-4-yl)-1H-imidazol-2-yl)-2-methoxypyridine], where the note is “concentration range 0.01-1 μM”, the “Qpatch Pulse = 1 (percent inhibition)” value was found to be 46% and the “Qpatch Pulse = 15 (percent inhibition)” value is recorded as 37%.
Consider `COc1ncccc1-c1nc(C2CC(C)(C)OC(C)(C)C2)cn1-c1ccc(C#N)c(C)c1` [Cpd 15, 4-[2-(2-Methoxypyridin-3-yl)-4-(2,2,6,6-tetramethyltetrahydro-2H-pyran-4-yl)-1H-imidazol-1-yl]-2-methylbenzonitrile], for which, under setting [3], the “N Type IC50 Data Qpatch Pulse = 1” value is listed as “poor fit” and the “N Type IC50 Data Qpatch Pulse = 15” value is “poor fit”.
As to `COc1ncccc1-c1nc(C2CC(C)(C)OC(C)(C)C2)cn1-c1ccc(F)c(F)c1F` [Cpd 16, 2-methoxy-3-(4-(2,2,6,6-tetramethyltetrahydro-2H-pyran-4-yl)-1-(2,3,4-trifluorophenyl)-1H-imidazol-2-yl)pyridine], under setting [3], the “N Type IC50 Data Qpatch Pulse = 1” value is “poor fit” and the “N Type IC50 Data Qpatch Pulse = 15” value is “poor fit”.
As for `COc1ccccc1-c1nc(C2CC(C)(C)OC(C)(C)C2)cn1-c1ccc(C#N)c(C)c1` [Cpd 21, 4-[2-(2-Methoxyphenyl)-4-(2,2,6,6-tetramethyltetrahydro-2H-pyran-4-yl)-1H-imidazol-1-yl]-2-methylbenzonitrile], the “Qpatch Pulse = 15 (percent inhibition)” value (concentration range 0.01-1 μM) is 39%.
As to `COc1ccc(-n2cc(C3CC(C)(C)OC(C)(C)C3)nc2-c2cccnc2OC)cc1F` [Cpd 23, 3-[1-(3-Fluoro-4-methoxyphenyl)-4-(2,2,6,6-tetramethyltetrahydro-2H-pyran-4-yl)-1H-imidazol-2-yl]-2-methoxypyridine], the “Qpatch Pulse = 1 (percent inhibition)” value (concentration range 0.01-1 μM) came to 21%.
Same read-out and setting: as for `COc1cc(-n2cc(C3CC(C)(C)OC(C)(C)C3)nc2-c2cccnc2OC)ccc1F` [Cpd 24, 3-[1-(4-Fluoro-3-methoxyphenyl)-4-(2,2,6,6-tetramethyltetrahydro-2H-pyran-4-yl)-1H-imidazol-2-yl]-2-methoxypyridine], the figure is 29%.
For `COc1ncccc1-c1nc(C2CC(C)(C)OC(C)(C)C2)cn1Cc1ccccc1Cl` [Cpd 27, 3-[1-(2-Chlorobenzyl)-4-(2,2,6,6-tetramethyltetrahydro-2H-pyran-4-yl)-1H-imidazol-2-yl]-2-methoxypyridine], the “N Type IC50 Data Qpatch Pulse = 1” value under setting [3] was “poor fit”.
For `COc1ncccc1-c1nc(C2CC(C)(C)OC(C)(C)C2)cn1Cc1ccc(Cl)cc1` [Cpd 28, 3-[1-(4-Chlorobenzyl)-4-(2,2,6,6-tetramethyltetrahydro-2H-pyran-4-yl)-1H-imidazol-2-yl]-2-methoxypyridine], under setting [3], the “N Type IC50 Data Qpatch Pulse = 1” value is recorded as “poor fit” and the “N Type IC50 Data Qpatch Pulse = 15” value is “poor fit”.
Consider `COc1ncccc1-c1nc(C2CC(C)(C)OC(C)(C)C2)cn1-c1ccc(C#N)c(C(F)(F)F)c1` [Cpd 29, 4-(2-(2-methoxypyridin-3-yl)-4-(2,2,6,6-tetramethyltetrahydro-2H-pyran-4-yl)-1H-imidazol-1-yl)-2-(trifluoromethyl)benzonitrile], for which, under setting [3], the “N Type IC50 Data Qpatch Pulse = 1” value was “poor fit” and the “N Type IC50 Data Qpatch Pulse = 15” value is on record as “poor fit”.
For `COc1ncccc1-c1nc(C2CC(C)(C)OC(C)(C)C2)cn1-c1cccc(F)c1F` [Cpd 31, 3-(1-(2,3-difluorophenyl)-4-(2,2,6,6-tetramethyltetrahydro-2H-pyran-4-yl)-1H-imidazol-2-yl)-2-methoxypyridine], under setting [3], the “N Type IC50 Data Qpatch Pulse = 15” value is “poor fit”.
For `COc1cc(-n2cc(C3CC(C)(C)OC(C)(C)C3)nc2-c2ccccc2OC)ccc1C#N` [Cpd 34, 2-Methoxy-4-[2-(2-methoxyphenyl)-4-(2,2,6,6-tetramethyltetrahydro-2H-pyran-4-yl)-1H-imidazol-1-yl]benzonitrile], the “Qpatch Pulse = 1 (percent inhibition)” value (concentration range 0.01-1 μM) worked out at 38%.
For the compound `COc1ncccc1-c1nc(C2CC(C)(C)OC(C)(C)C2)cn1-c1ccc(F)c(Cl)c1` [Cpd 46, 3-[1-(3-Chloro-4-fluorophenyl)-4-(2,2,6,6-tetramethyltetrahydro-2H-pyran-4-yl)-1H-imidazol-2-yl]-2-methoxypyridine], the IC50 under setting [1] was at least 10 µM.
Take `COc1ncccc1-c1nc(C2CC(C)(C)OC(C)(C)C2)cn1-c1ccc(C(F)(F)F)nc1` [Cpd 54, 2-Methoxy-3-{4-(2,2,6,6-tetramethyltetrahydro-2H-pyran-4-yl)-1-[6-(trifluoromethyl)pyridin-3-yl]-1H-imidazol-2-yl}pyridine]: where the note is “concentration range 0.01-1 μM”, the “N Type IC50 Data Qpatch Pulse = 1” value was “Poor fit” and the “N Type IC50 Data Qpatch Pulse = 15” value is “Poor fit”.
`CC1(C)CC(c2cn(-c3ccc(Cl)cc3)c(CC3CC3)n2)CC(C)(C)O1` [Cpd 55, 1-(4-Chlorophenyl)-2-(cyclopropylmethyl)-4-(2,2,6,6-tetramethyltetrahydro-2H-pyran-4-yl)-1H-imidazole]: the “Qpatch Pulse = 1 (percent inhibition)” value (concentration range 0.01-1 μM) was found to be 48%.
`CC1(C)CC(c2cn(-c3ccc(C(F)(F)F)nc3)c(CC3CC3)n2)CC(C)(C)O1` [Cpd 59, 5-[2-(Cyclopropylmethyl)-4-(2,2,6,6-tetramethyltetrahydro-2H-pyran-4-yl)-1H-imidazol-1-yl]-2-(trifluoromethyl)pyridine]: under setting [3], the “N Type IC50 Data Qpatch Pulse = 1” value is reported as “poor fit” and the “N Type IC50 Data Qpatch Pulse = 15” value is given as “poor fit”.
As for `CCOc1nccnc1-c1nc(C2CC(C)(C)OC(C)(C)C2)cn1-c1ccc(Cl)cc1` [Cpd 60, 2-[1-(4-Chlorophenyl)-4-(2,2,6,6-tetramethyltetrahydro-2H-pyran-4-yl)-1H-imidazol-2-yl]-3-ethoxypyrazine], the “N Type IC50 Data Qpatch Pulse = 15” value under setting [3] is given as “poor fit”.
Compound `COc1cnccc1-c1nc(C2CC(C)(C)OC(C)(C)C2)cn1-c1ccc(Cl)cc1` [Cpd 66, 4-(1-(4-chlorophenyl)-4-(2,2,6,6-tetramethyltetrahydro-2H-pyran-4-yl)-1H-imidazol-2-yl)-3-methoxypyridine] returned an IC50 under setting [1] of at least 10 µM.
Still for that read-out and setting: as for `COc1ccncc1-c1nc(C2CC(C)(C)OC(C)(C)C2)cn1-c1ccc(Cl)cc1` [Cpd 68, 3-(1-(4-chlorophenyl)-4-(2,2,6,6-tetramethyltetrahydro-2H-pyran-4-yl)-1H-imidazol-2-yl)-4-methoxypyridine], the figure is at least 10 µM.
As to `COc1ncccc1-c1nc(C2CC(C)(C)OC(C)(C)C2)cn1-c1cc(F)ccc1F` [Cpd 71, 3-(1-(2,5-difluorophenyl)-4-(2,2,6,6-tetramethyltetrahydro-2H-pyran-4-yl)-1H-imidazol-2-yl)-2-methoxypyridine], the “N Type IC50 Data Qpatch Pulse = 15” value (concentration range 0.01-1 μM) was “poor fit”.
Take `COc1ncccc1-c1nc(C2CC(C)(C)OC(C)(C)C2)cn1-c1cc(F)cc(F)c1` [Cpd 72, 3-(1-(3,5-difluorophenyl)-4-(2,2,6,6-tetramethyltetrahydro-2H-pyran-4-yl)-1H-imidazol-2-yl)-2-methoxypyridine]: for the setting “concentration range 0.01-1 μM”, the “N Type IC50 Data Qpatch Pulse = 1” value is recorded as “poor fit” and the “N Type IC50 Data Qpatch Pulse = 15” value is given as “poor fit”.
With `COc1ncccc1-c1nc(C2CC(C)(C)OC(C)(C)C2)cn1-c1cc(F)cc(C#N)c1` [Cpd 73, 3-fluoro-5-(2-(2-methoxypyridin-3-yl)-4-(2,2,6,6-tetramethyltetrahydro-2H-pyran-4-yl)-1H-imidazol-1-yl)benzonitrile], under “concentration range 0.01-1 μM”, the “N Type IC50 Data Qpatch Pulse = 1” value is on record as “poor fit” and the “N Type IC50 Data Qpatch Pulse = 15” value is listed as “poor fit”.
For the compound `COc1ncccc1-c1nc(C2CC(C)(C)OC(C)(C)C2)cn1-c1ccc(C#N)c(Cl)c1` [Cpd 78, 2-Chloro-4-[2-(2-methoxypyridin-3-yl)-4-(2,2,6,6-tetramethyltetrahydro-2H-pyran-4-yl)-1H-imidazol-1-yl]benzonitrile], for the setting “concentration range 0.01-1 μM”, the “Qpatch Pulse = 1 (percent inhibition)” value worked out at 58%.
Regarding `COc1ncccc1-c1nc(C2CC(C)(C)OC(C)(C)C2)cn1-c1cc(F)c(C#N)c(F)c1` [Cpd 82, 2,6-difluoro-4-(2-(2-methoxypyridin-3-yl)-4-(2,2,6,6-tetramethyltetrahydro-2H-pyran-4-yl)-1H-imidazol-1-yl)benzonitrile], under setting [3], the “N Type IC50 Data Qpatch Pulse = 1” value was “poor fit” and the “N Type IC50 Data Qpatch Pulse = 15” value is given as “poor fit”.
For the compound `COc1ccccc1-c1nc(C2CC(C)(C)OC(C)(C)C2)cn1-c1c(F)cc(C#N)cc1F` [Cpd 83, 3,5-difluoro-4-(2-(2-methoxyphenyl)-4-(2,2,6,6-tetramethyltetrahydro-2H-pyran-4-yl)-1H-imidazol-1-yl)benzonitrile], under setting [3], the “N Type IC50 Data Qpatch Pulse = 1” value is “poor fit” and the “N Type IC50 Data Qpatch Pulse = 15” value is “poor fit”.
As to `COc1ncccc1-c1nc(C2CC(C)(C)OC(C)(C)C2)cn1-c1ccc(Cl)c(C#N)c1` [Cpd 84, 2-Chloro-5-[2-(2-methoxypyridin-3-yl)-4-(2,2,6,6-tetramethyltetrahydro-2H-pyran-4-yl)-1H-imidazol-1-yl]benzonitrile], for the setting “concentration range 0.01-1 μM”, the “Qpatch Pulse = 1 (percent inhibition)” value is reported as 39%.
Turning to `COc1ccc(-n2cc(C3CC(C)(C)OC(C)(C)C3)nc2-c2cccnc2OC)cc1C#N` [Cpd 85, 2-Methoxy-5-[2-(2-methoxypyridin-3-yl)-4-(2,2,6,6-tetramethyltetrahydro-2H-pyran-4-yl)-1H-imidazol-1-yl]benzonitrile], where the note is “concentration range 0.01-1 μM”, the “Qpatch Pulse = 1 (percent inhibition)” value came to 45%.
